Article PMC6163091 (Chemical biology & drug design, 2018)
Like-named read-outs stand apart in the source and are kept apart here.

Tests used:
[1] = biological target: guanosine/adenosine/cytidine nucleoside hydrolase (GACNH) (Trichomonas vaginalis, UniProt A2DN71); assay: 1H NMR-based activity assay of GACNH; type: biochemical; conditions: for inhibition at 250 µM: read-out: % inhibition at 250 μM against GACNH
[2] = biological target: T1, adenosine/guanosine nucleoside hydrolase (AGNH) (Trichomonas vaginalis, UniProt A2EYV3); assay: 1H NMR activity assay of AGNH; type: biochemical; conditions: for inhibition at 250 µM: read-out: % inhibition at 250 μM against AGNH
T1 sequence (A2EYV3 1-304): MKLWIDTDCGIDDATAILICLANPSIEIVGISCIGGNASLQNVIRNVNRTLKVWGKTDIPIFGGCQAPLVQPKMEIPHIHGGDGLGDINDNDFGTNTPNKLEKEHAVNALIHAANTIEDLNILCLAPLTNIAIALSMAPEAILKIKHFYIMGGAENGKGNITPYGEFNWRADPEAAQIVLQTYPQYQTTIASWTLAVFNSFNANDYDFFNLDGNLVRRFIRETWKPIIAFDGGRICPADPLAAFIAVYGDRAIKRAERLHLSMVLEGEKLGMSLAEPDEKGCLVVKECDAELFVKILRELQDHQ

[3] = test system: uridine nucleoside hydrolase (UNH); assay: 19F NMR activity assay of UNH; type: biochemical, Trichomonas vaginalis; conditions: 250 μM compound; NM = not measurable (percent inhibition < 10%)
[4] = test system: uridine nucleoside hydrolase (UNH); conditions: NMR screen of NIH Clinical Collection; cited from earlier work
[5] = IC50 (μM) with Triton, GACNH, in the presence of 0.01% Triton X-100
[6] = IC50 against GACNH, ribavirin analogs, Table 2
[7] = carboxamidine in place of carboxamide

For NC(=O)c1ncn([C@@H]2O[C@H](CO)[C@@H](O)[C@H]2O)c1N [Acadesine], the inhibition at 250 µM [1] was 70%, the inhibition at 250 µM [2] was < 10% and the “% inhibition at 250 μM against UNH” value [3] was 51%.
For NC(=O)c1ncn([C@@H]2O[C@H](CO)[C@@H](O)[C@H]2O)n1 [Ribavirin], the IC50 [1, 5] was 9 ± 3.3 µM, the IC50 [1, 6] was 8.6 ± 4.4 µM and the “GACNH inhibition in screen” value ([1]; screen of NIH Clinical Collection, 50 μM compound, 100 μM adenosine, 40 min) was “significant inhibition”. The inhibition at 250 µM [2] was 83% and the “% inhibition at 250 μM against UNH” value [3] was 58%.
In the case of COc1ccc(-c2oc3c(CC=C(C)C)c(O[C@@H]4O[C@H](CO)[C@@H](O)[C@H](O)[C@H]4O)cc(O)c3c(=O)c2O[C@@H]2O[C@@H](C)[C@H](O)[C@@H](O)[C@H]2O)cc1 [Icariin], the IC50 [1, 5] is reported as 5 ± 1.7 µM.
In the case of COc1ccnc(C[S+]([O-])c2nc3ccc(OC(F)F)cc3[nH]2)c1OC (centres unmarked) [pantoprazole], the “inhibition of UNH (earlier screen)” value [4] is listed as “potent inhibitors”.
In the case of CCc1oc2ccccc2c1C(=O)c1cc(Br)c(O)c(Br)c1 [Benzbromarone], the IC50 [1, 5] is reported as 134 ± 32.7 µM.
With O=c1c(O[C@@H]2O[C@H](CO)[C@H](O)[C@H](O)[C@H]2O)c(-c2ccc(O)c(O)c2)oc2cc(O)cc(O)c12 [Hyperoside] the IC50 [1, 5] was 22.6 ± 7.6 µM.
OC[C@H]1O[C@@H](n2cnc3c(NC4CCCC4)nc(Cl)nc32)[C@H](O)[C@@H]1O [CCPA, 2-chloro-N(6)-cyclopentyladenosine] gave an IC50 [1, 5] of 14 ± 5.8 µM.
For COc1ccc2[nH]c([S+]([O-])Cc3ncc(C)c(OC)c3C)nc2c1 (centres unmarked) [omeprazole], the “inhibition of UNH (earlier screen)” value [4] is given as “potent inhibitors”.
In the case of COCCCOc1ccnc(C[S+]([O-])c2nc3ccccc3[nH]2)c1C (centres unmarked) [rabeprazole], the “inhibition of UNH (earlier screen)” value [4] is listed as “potent inhibitors”.
For N=C(N)c1ncn([C@@H]2O[C@H](CO)[C@@H](O)[C@H]2O)n1 [Viramidine], the IC50 [1, 6] was 1.1 ± 0.6 µM, the “enhancement of potency against GACNH relative to ribavirin” value [1, 7] was “about 10 fold” and the IC50 [2] was 0.12 ± 0.03 µM. The “enhancement of potency against AGNH relative to ribavirin” value [2, 7] was “more than 100 fold”, the “selectivity toward AGNH over GACNH” value ([2]; from IC50 values) was 10 fold and the “% inhibition at 250 μM against UNH” value [3] was 55%.
Work on O=C1c2c(O)cc(O)cc2O[C@H](c2ccc(O)c(O)c2)[C@H]1O (racemic) [(±)-Taxifolin] yielded an IC50 ([1]; read-out: IC50 (μM) with Triton, GACNH, in the presence of 0.01% Triton X-100) of 41.6 ± 20.4 µM.
Compound O=c1c(O[C@@H]2O[C@H](CO)[C@@H](O)[C@H](O)[C@H]2O)c(-c2ccc(O)c(O)c2)oc2cc(O)cc(O)c12 [Isoquercitrin] has an IC50 [1, 5] of 2.2 ± 0.6 µM.
For NC(=O)c1ncn([C@@H]2O[C@H](CO)[C@@H](O)[C@H]2O)c1O [Mizoribine], the inhibition at 250 µM [1] was < 10%, the inhibition at 250 µM [2] was < 10% and the “% inhibition at 250 μM against UNH” value [3] was “NM (Not measurable (percent inhibition < 10%))”.
